Structures can show the parent of a compound that is named as a salt. Where two headings read alike, the source gives them in different places.
How the values were obtained:
[1] = Storage at room temperature (character, moisture absorption); assay type: physicochemical; details: stored for a period of time at room temperature
Description: The S-(carboxymethyl)-L-cysteine ammonium salt monohydrate crystals of the present invention have a relatively uniform particle size distribution.

rat COPD model [2] = assay: Rat COPD model: oxidization indexes (LPO, MDA); assay type: in vivo; details: x ± SD
Method: (§1) 1.1 Preparation of Rat COPD Models
(§2) A method of establishing a rat COPD model by fumigation plus endotoxin lipopolysaccharide (LPS) endotracheal drop, which is commonly used at home and abroad at present was adopted. The period is 3 months (90 days). Specific method: on the 1st, the 15th, the 29th, the 43rd, the 57th, the 71st and the 85th days of the test, the rats were anesthetized with ethylether, the roots of tongues of the rats were pulled out, and LPS (200 ug/200 ul) was dripped through tracheas by bend gavage needle heads. The rats of the normal group were dripped with physiological saline of equal amount by the same method, and weren't fumigated. The rats of the other five groups were fumigated in a self-made fumigation bin. One side of the fumigation bin was externally connected with a negative pressure pump, and the top thereof was connected with a port for inserting cigarettes. With the negative press pump turned on, the cigarettes were lit, and the smoke of the cigarettes was absorbed into the fumigation bin. In order to prevent the animals from death caused by anoxia, 12 cigarettes were lit every time, and the lid of the fumigation bin was opened 20 min after fumigation for letting in fresh air. The operation was performed 1 h/3 times/day, with the LPS (200 ug/200 ul) being dripped through the tracheas by bend gavage needle heads.
(§3) 1.2 Pharmacological Intervention
(§4) The test was 90 days long. The pharmacological intervention was started from the 15th day, the rats of the positive group were perfused with carbocisteine, the rats of the low, medium and high test groups were perfused with different doses of test medicines, and the rats of the model group and the normal group were perfused with physiological saline of equal amount.
(§5) 1.3 Indexes Determination
(§6) Blood was taken from the orbit of each rat on the second day after the test was over, serum was separated, a complete stomach was cut and washed, lung tissue was preserved, the stomach and the right upper lung were left for pathobiology test, after the rest of the lung was subjected to lung tissue homogenate, the indexes of oxidization and antioxidation, the contents of lipid peroxide (LPO), malondialdehyde (MDA) and reduced glutathione (GSH), the activity of superoxide dismutase (SOD) and the concentration of inflammatory medium TNF-α, IL-8 and IL-6 were detected.

rat COPD model [3] = assay: Rat COPD model: inflammation indexes (TNF-α, IL-8, IL-6); assay type: in vivo; details: x ± SD
Method: as §1, §2, §3, §4, §5, §6

Water solubility = assay type: physicochemical
Description: (§7) In a preferred embodiment of the present invention, the S-(carboxymethyl)-L-cysteine ammonium salt monohydrate crystalline compound is a soluble double salt formed by the acidity of the carboxyl thereof and the alkalinity of the aqueous ammonia. […] In addition, the medicine, after being absorbed by the body, can be hydrolysed into S-(carboxymethyl)-L-cysteine and ammonium chloride with the effect of gastric acid, which can not only reduce the irritation of S-(carboxymethyl)-L-cysteine to the gastrointestinal tract, but also neutralize the excessive gastric acid. After the S-(carboxymethyl)-L-cysteine ammonium salt monohydrate crystal is hydrolysed, the S-(carboxymethyl)-L-cysteine in the body continues giving play to pharmacological effects thereof. At the same time, the ammonium chloride obtained from hydrolysis has chemical irritation to the mucous membrane, which can reflectively increase the amount of sputum to easily remove the sputum, and is conducive to removing a small amount of sputum which is difficult to be coughed out, thereby enhancing the sputum-resolving effect of the S-(carboxymethyl)-L-cysteine, and improving the curative effect. The S-(carboxymethyl)-L-cysteine ammonium salt is safe, has small side effect, and can be used for patients suffering from chronic obstructive pulmonary disease and the like to take for a long time.

[4] = pH value of 1% solution/suspension by pH meter; assay type: physicochemical; details: n=6
Description: as §7

rat COPD model [5] = assay: Rat COPD model: antioxidation indexes (GSH, SOD); assay type: in vivo; details: x ± SD
Method: as §1, §2, §3, §4, §5, §6

[6] = Solubility in several solvents (25° C.); assay type: physicochemical
[7] = system: patients suffering from COPD; details: 142 patients; 1500 mg/d, 12 months; cited from earlier work
gastric mucosa of rats = assay: Rat COPD model: pathological changes of stomachs; assay type: in vivo; details: perfused from the 15th day of the 90 day test
Method: A method of establishing a rat COPD model by fumigation plus endotoxin lipopolysaccharide (LPS) endotracheal drop, which is commonly used at home and abroad at present was adopted. The period is 3 months (90 days). Specific method: on the 1st, the 15th, the 29th, the 43rd, the 57th, the 71st and the 85th days of the test, the rats were anesthetized with ethylether, the roots of tongues of the rats were pulled out, and LPS (200 ug/200 ul) was dripped through tracheas by bend gavage needle heads. The rats of the normal group were dripped with physiological saline of equal amount by the same method, and weren't fumigated. The rats of the other five groups were fumigated in a self-made fumigation bin. […]
as §6

[8] = system: patients suffering from COPD; details: 1500 mg/d, 12 months; cited from earlier work
[9] = system: chronic obstructive pulmonary disease; details: 1500 mg/d, 12 months; cited from earlier work

SMILES: N[C@@H](CSCC(=O)O)C(=O)O [L-ammonium, S-(carboxymethyl)-L-cysteine ammonium salt monohydrate]
- absorption of moisture [1]: insusceptible to absorption of moisture
- character changes after storage [1]: no obvious character changes
- LPO Lung tissue (rat COPD model [2]; high dose group): 13.51 ± 1.66 nmol/mL
- LPO Serum (rat COPD model [2]; high dose group): 3.22 ± 0.85 nmol/mL
- MDA Lung tissue (rat COPD model [2]; high dose group): 3.68 ± 0.87 µmol/mL
- MDA Serum (rat COPD model [2]; high dose group): 5.88 ± 1.26 µmol/mL
- LPO Lung tissue (rat COPD model [2]; low dose group): 16.24 ± 2.32 nmol/mL
- LPO Serum (rat COPD model [2]; low dose group): 4.75 ± 1.30 nmol/mL
- MDA Lung tissue (rat COPD model [2]; low dose group): 4.03 ± 1.27 µmol/mL
- MDA Serum (rat COPD model [2]; low dose group): 7.28 ± 1.33 µmol/mL
- LPO Lung tissue (rat COPD model [2]; medium dose group): 15.58 ± 2.73 nmol/mL
- LPO Serum (rat COPD model [2]; medium dose group): 3.77 ± 1.15 nmol/mL
- MDA Lung tissue (rat COPD model [2]; medium dose group): 3.88 ± 0.59 µmol/mL
- MDA Serum (rat COPD model [2]; medium dose group): 6.20 ± 3.23 µmol/mL
- IL-6 Lung tissue (rat COPD model [3]; high dose group): 9.28 ± 4.49 pg/mL
- IL-6 Serum (rat COPD model [3]; high dose group): 5.83 ± 1.51 pg/mL
- IL-8 Lung tissue (rat COPD model [3]; high dose group): 8.17 ± 1.06 pg/mL
- IL-8 Serum (rat COPD model [3]; high dose group): 5.36 ± 1.51 pg/mL
- TNF-α Lung tissue (rat COPD model [3]; high dose group): 15.15 ± 4.20 pg/mL
- TNF-α Serum (rat COPD model [3]; high dose group): 13.02 ± 5.32 pg/mL
- IL-6 Lung tissue (rat COPD model [3]; low dose group): 14.72 ± 5.51 pg/mL
- IL-6 Serum (rat COPD model [3]; low dose group): 7.02 ± 3.30 pg/mL
- IL-8 Lung tissue (rat COPD model [3]; low dose group): 9.97 ± 1.24 pg/mL
- IL-8 Serum (rat COPD model [3]; low dose group): 7.90 ± 2.16 pg/mL
- TNF-α Lung tissue (rat COPD model [3]; low dose group): 20.60 ± 9.60 pg/mL
- TNF-α Serum (rat COPD model [3]; low dose group): 17.98 ± 3.94 pg/mL
- IL-6 Lung tissue (rat COPD model [3]; medium dose group): 12.91 ± 2.47 pg/mL
- IL-6 Serum (rat COPD model [3]; medium dose group): 6.24 ± 2.12 pg/mL
- IL-8 Lung tissue (rat COPD model [3]; medium dose group): 8.66 ± 2.54 pg/mL
- IL-8 Serum (rat COPD model [3]; medium dose group): 6.30 ± 2.17 pg/mL
- TNF-α Lung tissue (rat COPD model [3]; medium dose group): 19.98 ± 8.78 pg/mL
- TNF-α Serum (rat COPD model [3]; medium dose group): 15.11 ± 4.38 pg/mL
- water solubility (Water solubility; listed as S-(carboxymethyl)-L-cysteine ammonium salt monohydrate crystal, ammonium salt monohydrate): extremely easily soluble in water
- pH value ([4]; 1% compound, pH meter): 6.60±0.36
- GSH Lung tissue (rat COPD model [5]; high dose group): 141.69 ± 28.40 µmol/L
- GSH Serum (rat COPD model [5]; high dose group): 232.93 ± 40.49 µmol/L
- SOD Lung tissue (rat COPD model [5]; high dose group): 77.56 ± 18.09 U/mL
- SOD Serum (rat COPD model [5]; high dose group): 140.69 ± 32.13 U/mL
- GSH Lung tissue (rat COPD model [5]; low dose group): 113.59 ± 24.32 µmol/L
- GSH Serum (rat COPD model [5]; low dose group): 140.64 ± 19.66 µmol/L
- SOD Lung tissue (rat COPD model [5]; low dose group): 60.38 ± 16.04 U/mL
- SOD Serum (rat COPD model [5]; low dose group): 90.80 ± 15.13 U/mL
- GSH Lung tissue (rat COPD model [5]; medium dose group): 124.19 ± 30.78 µmol/L
- GSH Serum (rat COPD model [5]; medium dose group): 175.61 ± 31.11 µmol/L
- SOD Lung tissue (rat COPD model [5]; medium dose group): 70.71 ± 11.16 U/mL
- SOD Serum (rat COPD model [5]; medium dose group): 102.98 ± 23.26 U/mL
- Solubility ([6]; Absolute ethyl alcohol): Very slightly soluble
- Solubility ([6]; Acetone): Very slightly soluble
- Solubility ([6]; Acetonitrile): Very slightly soluble
- Solubility ([6]; Isopropanol): Very slightly soluble
- Solubility ([6]; Methanol): Very slightly soluble
- Solubility ([6]; N,N-Dimethylformamide): Very slightly soluble

SMILES: N[C@@H](CSCC(=O)O)C(=O)O [carbocisteine, S-(carboxymethyl)-L-cysteine, reference compound]
- LPO Lung tissue (rat COPD model [2]; positive group): 17.44 ± 2.43 nmol/mL
- LPO Serum (rat COPD model [2]; positive group): 5.12 ± 1.09 nmol/mL
- MDA Lung tissue (rat COPD model [2]; positive group): 4.76 ± 0.70 µmol/mL
- MDA Serum (rat COPD model [2]; positive group): 7.34 ± 2.19 µmol/mL
- IL-6 Lung tissue (rat COPD model [3]; positive group): 14.24 ± 6.26 pg/mL
- IL-6 Serum (rat COPD model [3]; positive group): 8.13 ± 2.87 pg/mL
- IL-8 Lung tissue (rat COPD model [3]; positive group): 10.91 ± 2.30 pg/mL
- IL-8 Serum (rat COPD model [3]; positive group): 7.87 ± 3.08 pg/mL
- TNF-α Lung tissue (rat COPD model [3]; positive group): 25.17 ± 8.28 pg/mL
- TNF-α Serum (rat COPD model [3]; positive group): 18.37 ± 4.55 pg/mL
- water solubility (Water solubility): poorer water solubility
- prevention of acute COPD [7]: prevented from acute COPD
- Pathological changes of stomachs / irritation to the gastrointestinal tract (gastric mucosa of rats): mild irritations such as mild hyperaemia and edema, and larger inflammatory cell infiltration
- Pathological changes of stomachs / irritation to the gastrointestinal tract (gastric mucosa of rats; listed as positive group): mild edema and hyperemia and serious inflammatory cell infiltration in the gastric mucosa layers
- pH ([4]; 1% suspension per Chinese Pharmacopoeia (2010 Edition)): 2.93±0.20
- GSH Lung tissue (rat COPD model [5]; positive group): 107.26 ± 23.52 µmol/L
- GSH Serum (rat COPD model [5]; positive group): 132.31 ± 24.04 µmol/L
- SOD Lung tissue (rat COPD model [5]; positive group): 62.28 ± 15.12 U/mL
- SOD Serum (rat COPD model [5]; positive group): 96.16 ± 23.03 U/mL
- frequency of catching colds and acute exacerbation of COPD [8]: the frequency of catching colds is reduced and the acute exacerbation of COPD is relieved
- annual acute morbidity per person reduced by [9]: 24.5%

From patent US10251854B2, “S-(carboxymethyl)-cysteine pharmaceutical compound and preparation method and use thereof” (Guangzhou Baiyunshan Pharmaceutical Holdings Co., Ltd. …, priority 2013, dated 2019)
